From article PMC7093416, “Selective USP7 inhibition elicits cancer cell killing through a p53-dependent mechanism” (Scientific Reports, 2020) come the findings set out here.

Each structure is given as a SMILES string.

The target of assay [1] is T1, USP7 (Homo sapiens, UniProt Q93009). The experiment in a line: Competitive ABPP with HA-Ub-VS in MCF7 crude cell extracts. The format is binding. The conditions noted are these: read-out: IC50 of inhibition of HA-Ub-VS labeling. Further details: endogenous in cells; host or cells: MCF7. As to the method:
(§1) HA-Ub-VS experiments were performed as previously described in Lamberto et al[29]. Briefly, target engagement lysis buffer (50 mM Tris pH 8.0, 150 mM NaCl, 5 mM MgCl2, 0.5 mM EDTA, 0.5% NP-40, 10% glycerol, 1 mM TCEP, protease and phosphatase inhibitors) was added to cell pellets on ice. Lysate was cleared by centrifugation and diluted to 1.67 mg/mL. Where indicated, 30 μL lysate was then incubated with inhibitors or DMSO for the indicated timepoints. 1 μM HA-Ub-VS was then added to the lysate and incubated at RT for the indicated time points. Labeling reactions were quenched with 4x LDS sample buffer (Thermo Fisher B0007) supplemented with 10% BME, vortexed vigorously, and heated to 95 C for 5 minutes. Samples were resolved by SDS-PAGE and analyzed by Western blot with the indicated antibodies.

Assay [2] deals with T1, USP7. The assay can be described thus: Live cell treatment and competitive ABPP with HA-Ub-VS. The format is cell-based. Also on record: endogenous in cells; host or cells: MCF7. The settings on record: live cell treatment, 6 hr; read-out: IC50, USP7 inhibition in cyto. As to the method: as §1
Assay [3] deals with T2, USP7 C223A catalytic domain (Homo sapiens, UniProt Q93009, C223A).
T2 construct: catalytic domain (208–560) used were cloned as described; inferred from Ni-NTA purification; made in house; host or cells: E. coli BL21 (DE3)
The experiment in a line: Intact MS labeling of USP7 C223A catalytic domain. The format is binding. The settings on record: 2.5-fold molar excess, 2 hours. As to the method:
The constructs encoding USP7 full length (amino acids 1–1102) and catalytic domain (208–560) used were cloned as described. Both constructs were overexpressed in E. coli BL21 (DE3). Cells were grown at 37 °C to an OD of 0.9, cooled to 16 °C, induced with 500 μM isopropyl-1-thio-D-galactopyranoside (IPTG), incubated overnight at 16 °C, collected by centrifugation, and stored at −80 °C. Cell pellets were sonicated in lysis buffer (25 mM Tris pH 8, 1 M NaCl, and 10 mM BME) supplemented with 10 μg/ml phenylmethanesulfonylfluoride (PMSF) and the resulting lysate was centrifuged at 30,000 xg for 40 min. Ni-NTA beads (Qiagen) were mixed with lysate supernatant for 2 hours, and washed with lysis buffer supplemented with 25 mM imidazole. The bound protein was eluted with lysis buffer supplemented with 300 mM imidazole. […]
Figure S1: Full-length recombinant purified USP7 was pre-incubated with XL041 at the indicated concentrations for the indicated times, then Ub-AMC was added and fluorescence was monitored. […]
Figure S5: MCF7 cells were transfected with the indicated pcDNA constructs for 48 hours, then treated with XL177A at the indicated concentration for 3 hours. Cells were lysed, and FLAG-USP7 target engagement was assessed with the DUB ABP HA-Ub-VS. Densitometry was performed using ImageStudio software and analyzed using Graphpad Prism. […]

The next assay concerns the target T3, USP7-Q351S (Homo sapiens, UniProt Q93009, Q351S).
T3 construct: made in house
The assay can be described thus: Ub-AMC enzymatic assay, USP7-Q351S mutant. The conditions noted are these: 6-hr pre-incubation. The format is biochemical. Here is the method:
Full length USP7 was tested for its activity in Ubiquitin-AMC assay in presence or absence of inhibitors. USP7 (5 nM) was pre-incubated for 6 hours at room temperature with different concentrations of inhibitors or DMSO as a control in 50 mM HEPES pH 7.5, 0.5 mM EDTA, 11 uM ovalbumin, and 5 mM DTT. Ubiquitin-AMC (Boston Biochem) was then added to a final concentration of 500 nM. The initial rate of the reaction was measured by collecting fluorescence data at one minute intervals over 30-minute period using a Clariostar fluorescence plate reader at excitation and emission wavelength of 345 and 445 nm respectively. The calculated initial rate values were plotted against inhibitor concentrations to determine IC50s. All the experimental data were plotted using Prism GraphPad. All assays for each compound were performed at least twice for each compound.

T1 sequence (Q93009 whole entry): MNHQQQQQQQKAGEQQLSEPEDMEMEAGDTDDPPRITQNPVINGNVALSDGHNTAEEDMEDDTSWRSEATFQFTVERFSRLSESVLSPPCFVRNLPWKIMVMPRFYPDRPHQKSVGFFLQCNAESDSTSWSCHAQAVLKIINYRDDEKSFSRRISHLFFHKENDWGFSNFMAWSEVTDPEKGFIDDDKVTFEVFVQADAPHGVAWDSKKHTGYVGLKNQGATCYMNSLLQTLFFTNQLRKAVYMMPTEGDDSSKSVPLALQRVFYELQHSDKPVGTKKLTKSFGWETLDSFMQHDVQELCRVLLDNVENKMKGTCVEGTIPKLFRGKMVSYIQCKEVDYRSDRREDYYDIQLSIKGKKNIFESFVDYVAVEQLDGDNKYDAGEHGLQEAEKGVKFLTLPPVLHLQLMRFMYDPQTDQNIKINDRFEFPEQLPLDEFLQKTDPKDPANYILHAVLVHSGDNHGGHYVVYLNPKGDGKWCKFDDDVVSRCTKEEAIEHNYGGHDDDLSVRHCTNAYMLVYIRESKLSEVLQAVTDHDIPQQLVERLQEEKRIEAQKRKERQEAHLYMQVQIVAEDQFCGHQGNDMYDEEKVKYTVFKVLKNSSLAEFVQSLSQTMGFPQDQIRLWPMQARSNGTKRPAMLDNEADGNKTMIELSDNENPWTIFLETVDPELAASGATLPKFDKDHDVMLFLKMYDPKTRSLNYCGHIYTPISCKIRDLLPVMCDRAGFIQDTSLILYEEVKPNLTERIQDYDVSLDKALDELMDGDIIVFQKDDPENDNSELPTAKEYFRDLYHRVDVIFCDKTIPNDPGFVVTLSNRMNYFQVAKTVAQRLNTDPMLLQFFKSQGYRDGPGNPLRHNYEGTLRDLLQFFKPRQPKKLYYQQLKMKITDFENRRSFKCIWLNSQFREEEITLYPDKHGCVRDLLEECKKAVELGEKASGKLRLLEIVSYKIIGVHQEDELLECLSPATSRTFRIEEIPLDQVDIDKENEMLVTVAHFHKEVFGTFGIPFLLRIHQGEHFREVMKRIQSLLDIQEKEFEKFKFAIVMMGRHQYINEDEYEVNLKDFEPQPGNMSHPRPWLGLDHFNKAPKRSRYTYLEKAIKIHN
T2 sequence (Q93009 208-560 C223A): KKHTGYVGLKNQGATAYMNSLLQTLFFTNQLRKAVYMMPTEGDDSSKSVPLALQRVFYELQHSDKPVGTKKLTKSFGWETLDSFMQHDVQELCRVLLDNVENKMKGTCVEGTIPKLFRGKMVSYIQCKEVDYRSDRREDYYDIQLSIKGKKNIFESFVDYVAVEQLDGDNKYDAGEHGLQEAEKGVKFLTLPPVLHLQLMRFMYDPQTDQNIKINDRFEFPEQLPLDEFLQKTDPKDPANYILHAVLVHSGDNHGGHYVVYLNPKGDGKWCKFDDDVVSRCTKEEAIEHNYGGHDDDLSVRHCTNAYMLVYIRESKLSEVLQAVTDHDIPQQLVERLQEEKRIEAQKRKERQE
T3 sequence (Q93009 whole entry Q351S): as the sequence (Q93009 whole entry) above, with Q351S counted along it

For orientation: IC50 means the point on the concentration scale where inhibition reaches its midpoint. As for `CN1CCN(CCC(=O)Nc2ccc3c(=O)n(CC4(O)CCN(C(=O)[C@@H](CCCNC(=O)c5ccc6c(Cl)c7c(nc6c5)CCCC7)Cc5ccccc5)CC4)cnc3c2)CC1` [XL177A], the IC50 is 85 nM on USP7 [1] (30 min preincubation), 8 nM on USP7 [1] (4 hr preincubation), 39 nM on USP7 [2] and 189 nM at USP7-Q351S. For the same molecule, the “mass shift with USP7 C223A” value in assay [3] is listed as “no mass shift was detected”.
